Assay results reported in patent US7435754B2, “Laulimalide microtubule stabilizing agents” (Utah State University, priority 2000, dated 2008).
Where two headings read alike, the source gives them in different places. Each block holds one molecule with its values, some of them ahead of it.

How the values were obtained:
[1] = tested on: SK-OV-3 human ovarian carcinoma cell line; assay: Inhibition of cell proliferation, SRB assay, SK-OV-3; format: cell-based; details: read-out: IC50 for inhibition of cell proliferation
Experimental: (§1) The A-10 rat aortic smooth muscle and SK-OV-3 human ovarian carcinoma cell lines were obtained from the American Type Culture Collection (Manassas, Va.) and were cultured in BME containing 10% FBS and 50 μg/mL gentamycin sulfate. A sub-line of SK-OV-3 selected for resistance to vinblastine (SKVLB-1) was provided by Dr. Victor Ling (British Columbia Cancer Center, Vancouver, British Columbia) and was maintained in BME containing 10% FBS and 50 μg/mL gentamycin sulfate. The MDA-MB-435 human mammary adenocarcinoma cell line was obtained from Dr. Mai Higazi (Georgetown University, Washington, D.C.), and was maintained in Richters medium containing 10% FBS and 50 μg/mL gentamycin sulfate. Vinblastine was added to a final concentration of 1 μg/mL to SKVLB-1 cells 24 hours after passage to maintain selection pressure for P-glycoprotein-overexpressing cells.
(§2) The IC50 for inhibition of cell proliferation was determined by measuring cell-associated protein after drug treatment using the sulforhodamine B assay.
(§3) The early literature on laulimalide reported that it was a cytotoxin, but without specifying a mechanism. Experiments were conducted to determine the IC50 values for laulimalide and isolaulimalide in two drug-sensitive cell lines, MDA-MB-435 and SK-OV-3, and in a multidrug-resistant cell line, SKVLB-1. Cells were treated with varying concentrations of the drugs for 48 hours, and cell-associated protein was determined using the SRB assay. The IC50 for each compound was calculated for each cell line.

A-10 cells [2] = assay: Immunofluorescence of cellular microtubules and mitotic spindles; format: cell-based, rat; details: for sensitivity of stabilized cellular microtubules to vinblastine / morphological effects on cellular microtubules: A-10 cells; for effect on mitotic spindles: A-10 cells and SK-OV-3 cells; for morphological effects on cellular microtubules: 18 hours, laulimalide 2 μM, isolaulimalide 2-20 μM, paclitaxel 1-20 μM
Experimental: A-10 cells were grown to 70-85% confluence on glass coverslips in BME supplemented with 10% FBS. Drug compounds in PBS were added to the indicated final concentrations and cells were incubated for an additional […].
(§4) For the staining of microtubules and intermediate filaments, the cells were fixed with cold methanol for 5 minutes, blocked for 20 minutes with PBS containing 10% calf serum to block nonspecific binding sites, and incubated at 37° C. for 90 min with monoclonal anti-β-tubulin at the dilutions recommended by the manufacturer. Bound primary antibodies were subsequently visualized by a one hour incubation with fluorescein(FITC)-conjugated sheep antimouse IgG (F-3008; Sigma). The coverslips were washed, stained with 0.1 μg/mL DAPI for 10 minutes, mounted on microscope slides and the fluorescence patterns were examined and photographed using a Zeiss Axioplan microscope equipped with epifluorescence optics for fluorescein and DAPI.
A-10 cells were treated with laulimalide, isolaulimalide, or paclitaxel for 18 hours and the morphological effects on microtubules examined by indirect immunofluorescence techniques.

A-10 cells [3] = assay: Micronuclei formation, DAPI staining; format: cell-based, rat; details: for effect on nuclear structure: A-10 and SK-OV-3 cells, wide range of concentrations; for cells exhibiting micronuclei: A-10 cells, 0.02-2 μM, 18 hours
Experimental: FIG. 1 is a graphic representation comparing the effects of Laulimalide and paclitaxel on micronuclei formation, in which A-10 cells were treated for 18 hours with Laulimalide or paclitaxel, the cells were fixed and nuclei were visualized by DAPI staining;
as §4
The effects of laulimalide on nuclear structure are visible: The normal rounded shape of the nucleus, which is devoid of microtubules, can be detected, whereas in laulimalide-treated cells this distinct microtubule-free area containing the discrete central nucleus was lost and only vesicle-like areas devoid of microtubules remained. […] Similar nuclear changes occurred with isolaulimalide. Paclitaxel also initiated the formation of micronuclei, as has been reported by others.
The difference between the two drugs was statistically significant at all five concentrations tested (P<0.0001).

[4] = tested on: MDA-MB-435 human mammary adenocarcinoma cell line; assay: Inhibition of cell proliferation, sulforhodamine B (SRB) assay, MDA-MB-435; format: cell-based; details: for IC50: Homo sapiens
Experimental: as §1, §2, §3

bovine brain tubulin = assay: Tubulin polymerization in vitro; format: biochemical; details: for effect on tubulin polymerization (in words): absence of polymerization promoters; for EC50: Table 2
Excerpt: FIG. 3 collectively is a graphic representation comparing the effects of Laulimalide and paclitaxel on tubulin polymerization, in which the polymerization of bovine brain tubulin was monitored, and in which:
One characteristic of the microtubule-stabilizing agents paclitaxel, discodermolide, epothilones A and B, and eleutherobin is the ability of these agents to initiate the polymerization of tubulin in the absence of polymerization promoters, such as glycerol. Studies were undertaken to determine the effects of laulimalide on tubulin polymerization.
Samples of the tubulin polymer formed were examined by electron microscopy to determine whether the increase in turbidity measured during the polymerization experiments was due to the formation of microtubule-like polymers or the formation of other structures.

[5] = tested on: SKVLB-1 cell line (P-glycoprotein-overexpressing sub-line of SK-OV-3); assay: Inhibition of cell proliferation, SRB assay, multidrug-resistant SKVLB-1; format: cell-based, human; details: for IC50: Homo sapiens, read-out: IC50 for inhibition of cell proliferation; for Resistance Factor: drug-resistant SKVLB-1 versus parental SK-OV-3 IC50
Experimental: as §1, §2, §3

caspase 3 / PARP = assay: Caspase 3 activation and PARP proteolysis, immunoblot of cell lysates; format: cell-based; details: cells treated 42 and 48 hours
Excerpt: During apoptosis, specific cysteine proteases called the caspases are activated. Activation of the caspase cascade leads to the proteolytic degradation of specific cellular proteins. The activation of caspase 3 and the proteolysis of the DNA repair enzyme PARP, a downstream substrate of caspase 3, were examined in cell lysates from laulimalide-treated cells. Activation of caspase 3 leads to the loss of the 32 kDa proenzyme and the formation of the activation products p17 and p12. […] The loss of the p32 proenzyme is seen at 48 hours. The specific proteolysis of PARP by caspase 3 leads to the formation of two products, an 89 kDa COOH-terminal fragment and a 24 kDa N-terminal fragment. The proteolysis of PARP and the appearance of the 89 kDa degradation product coincided with the activation of caspase 3.

MDA-MB-435 cells = assay: Cell cycle distribution by flow cytometry; format: cell-based, human; details: MDA-MB-435, 20 nM
Experimental: FIG. 2 collectively is a graphic representation comparing the effects of Laulimalide on cell cycle distribution, wherein log phase growth cultures of MDA-MB-435 cells were treated, the cells were fixed, stained, and analyzed on a Coulter EPICS XL-MCL flow cytometer and plotted as events versus propidium iodide fluorescene intensity, and in which:
A common characteristic of anti-microtubule agents is their ability to initiate mitotic arrest. […] This is consistent with the effects of other antimicrotubule agents, where disruption of microtubule dynamics prevents normal mitotic progression and leads to mitotic arrest. […] The mitotic cells were rounded, and the spindles formed a circular pattern with spindle microtubules radiating outward from a microtubule-free core in the center of the cell. In the mitotic cells, the nuclear membranes were not apparent, and the chromatin was condensed and aligned in a circular pattern.
The ultimate mechanism of action of many cytotoxic cancer chemotherapeutic agents is the initiation of pathways of gene and protein expression leading to apoptosis. Antimicrotubule drugs including paclitaxel, vinblastine, and cryptophycin 1 initiate apoptosis both in vitro and in vivo. […] The loss of cellular DNA is detected by the appearance of the subdiploid peak when apoptotic cells are analyzed by flow cytometry. […]

[6] = tested on: A-10 rat aortic smooth muscle cell line; assay: Inhibition of cell proliferation, A-10 nontransformed line; format: cell-based
Experimental: as §1, §2
The IC50 for inhibition of proliferation was also determined in the A-10 cell line, a nontransformed line that was used to show the effects of microtubule-stabilizing agents on cellular structures. […]

[7] = MDA-MB-435, 48 h, read-out: IC50 for inhibition of cell proliferation

Structure (SMILES): C=C1C[C@H](C)C[C@@H]2CC=C[C@@H](C/C=C\C(=O)OC3CC(OC3/C=C/[C@@H]3CC(C)=CCO3)[C@@H](O)[C@@H](O)C1)O2 (stereo partly drawn) [Isolaulimalide, isolaulimalide]
- IC50 ([1]; SK-OV-3, 48 h): 2.57 µM
- sensitivity of stabilized cellular microtubules to vinblastine (A-10 cells [2]): resistant to vinblastine-induced depolymerization
- effect on mitotic spindles (A-10 cells [2]): Abnormal mitotic spindles
- morphological effects on cellular microtubules (A-10 cells [2]): increase in the density of cellular microtubules, but no microtubule bundles were present
- effect on nuclear structure (A-10 cells [3]): formation of multiple micronuclei
- IC50 [4, 7]: 1.97 µM
- IC50 values, inhibition of cell proliferation (in words) ([4]; cell lines of Table 1): low μM range
- effect on tubulin polymerization (in words) (bovine brain tubulin): stimulated tubulin polymerization
- IC50 ([5]; SKVLB1, 48 h): 2.65 µM
- Resistance Factor [5]: 1.03

Structure (SMILES): C=C1C[C@H](C)C[C@@H]2CC=C[C@@H](C/C=C\C(=O)OC([C@@H](O)/C=C/[C@@H]3CC(C)=CCO3)C[C@@H]3OC3[C@@H](O)C1)O2 (stereo partly drawn) [Laulimalide, laulimalide]
- IC50 ([1]; SK-OV-3, 48 h): 0.0115 ± 0.00053 µM
- sensitivity of stabilized cellular microtubules to vinblastine (A-10 cells [2]): resistant to vinblastine-induced depolymerization
- effect on mitotic spindles (A-10 cells [2]): Abnormal mitotic spindles
- morphological effects on cellular microtubules (A-10 cells [2]): bundles of short tufts of microtubules
- effect on nuclear structure (A-10 cells [3]): formation of multiple micronuclei
- cells exhibiting micronuclei (A-10 cells [3]): approximately 60%
- caspase 3 activation and PARP cleavage (caspase 3 / PARP): Caspase 3 was activated and PARP proteolytically cleaved
- subdiploid peak (apoptosis) (MDA-MB-435 cells; 18 hours): doubling of the subdiploid peak
- effect on cell cycle (MDA-MB-435 cells; within nine hours): cell cycle arrest in G2-M
- IC50 [4, 7]: 0.00574 ± 0.00058 µM
- IC50 ([4]; MDA-MB-435, read-out: IC50 values, inhibition of cell proliferation (summary of Table 1)): 0.005 to 0.012 µM
- IC50 ([6]; A10, read-out: IC50 for inhibition of proliferation): 51 µM
- polymerization of tubulin at 0° C. (bovine brain tubulin): Neither paclitaxel nor laulimalide promoted the polymerization
- kinetics of tubulin formation relative to 20 μM paclitaxel (bovine brain tubulin; 20 μM): twice as fast
- additional tubulin polymer formed relative to paclitaxel (bovine brain tubulin; 20 μM of each drug): approximately 30%
- EC50 (bovine brain tubulin): 4.32 ± 0.4 µM
- effect on tubulin polymerization (in words) (bovine brain tubulin): stimulated tubulin polymerization
- stability of tubulin polymers formed (bovine brain tubulin; cold and CaCl2): insensitive to cold and CaCl2-induced depolymerization
- IC50 ([5]; SKVLB1, 48 h): 1.21 µM
- Resistance Factor [5]: 105

- IC50 ([1]; SK-OV-3, 48 hours, SRB, mean ± SD): 0.00171 ± 0.00107 µM
- IC50 ([4]; MDA-MB-435, 48 hours, SRB, mean ± SD, read-out: IC50 for inhibition of cell proliferation): 0.00102 ± 0.00025 µM
- EC50 (bovine brain tubulin): 1.44 ± 0.06 µM
- IC50 ([5]; SKVLB1, SKVLB (SKVLB-1), 48 hours, SRB, mean ± SD): > 100 µM
Structure (SMILES): CC(=O)O[C@H]1C(=O)[C@@]2(C)[C@H]([C@H](OC(=O)c3ccccc3)[C@]3(O)C[C@H](OC(=O)[C@H](O)[C@@H](NC(=O)c4ccccc4)c4ccccc4)C(C)=C1C3(C)C)[C@]1(OC(C)=O)CO[C@@H]1C[C@@H]2O [Paclitaxel, reference compound]
- sensitivity of stabilized cellular microtubules to vinblastine (A-10 cells [2]): resistant to vinblastine-induced depolymerization
- effect on mitotic spindles (A-10 cells [2]): Abnormal mitotic spindles
- morphological effects on cellular microtubules (A-10 cells [2]): formation of a highly organized array of microtubules, some of which formed thick microtubule bundles
- cells exhibiting micronuclei (A-10 cells [3]): approximately 40%
- IC50 ([6]; A10, A-10 cell line, read-out: IC50 for inhibition of proliferation): 40 µM
- polymerization of tubulin at 0° C. (bovine brain tubulin): Neither paclitaxel nor laulimalide promoted the polymerization
- inhibition of the SKVLB-1 cell line ([5]; concentrations up to 100 μM): ≤ 70%
- Resistance Factor [5]: >58,480
